{"source": "patent US20190125753A1", "about": "“COMPOUNDS AND METHODS FOR INCREASING HEMATOPOIESIS” (University of Southern California, priority 2016, published 2019)", "key": {"bone marrow HSPC [1]": {"test_system": "bone marrow HSPC", "test": "Competitive repopulation assay with bone marrow of 7Gy irradiated mice", "format": "in vivo, mouse", "method": "In the hematopoietic system, the LTR-HSC or pluripotent HSC sits atop the hematopoietic hierarchy. LTR-HSCs subsequently generate “Short Term Repopulating” hematopoietic stem cells (STR-HSC), and then progenitor cells. After radiation induced myeloid-ablation, there is a significant loss of progenitor cells. To investigate the target cell population in irradiated mice, YH250 or DMSO were administrated to 7Gy irradiated animals 24 hours post radiation. Then, 7 or 14 days post radiation (6 or 13 days after YH250 or DMSO administration), bone marrow cells were recovered from animals and competitive repopulation assay was performed to study YH250 function in stimulating HSPC proliferation. 1×10^6 testing bone marrow cells were mixed with 2×10^5 competitor cells (from non-irradiated mice) and injected into lethally irradiated mice (9Gy) (FIG. 18A). HSPC cell number will be reflected in the short-term (1-2 months after BMT) or long-term (≥4 month of BMT) engraftment. […] The same observation also applies to cells isolated 14th day post 7Gy radiation.\nThe expanded LTR-HSC at day 6 post YH250 stimulation then starts to develop and give more STR-HSC by day 14 post radiation. There is no further LTR-HSC expanding from day 6 to day 13 post YH250. Thus, one dose of YH250 administrated 24 hours post 7Gy radiation stimulated symmetric non-differentiation LTR-HSC expansion and followed with STR-HSC expansion."}, "[2]": {"biological_target": "T1, p300/γ-catenin interaction (Mus musculus, UniProt B2RWS6)", "T1 construct": "bone marrow Sca-1posit cells were isolated with Anti-Sca-1 microbeads; from tissue; host or cells: bone marrow Sca-1 positive cells of female C57/Black mice dosed in vivo", "T1 sequence (B2RWS6 2-2412 limits assumed)": "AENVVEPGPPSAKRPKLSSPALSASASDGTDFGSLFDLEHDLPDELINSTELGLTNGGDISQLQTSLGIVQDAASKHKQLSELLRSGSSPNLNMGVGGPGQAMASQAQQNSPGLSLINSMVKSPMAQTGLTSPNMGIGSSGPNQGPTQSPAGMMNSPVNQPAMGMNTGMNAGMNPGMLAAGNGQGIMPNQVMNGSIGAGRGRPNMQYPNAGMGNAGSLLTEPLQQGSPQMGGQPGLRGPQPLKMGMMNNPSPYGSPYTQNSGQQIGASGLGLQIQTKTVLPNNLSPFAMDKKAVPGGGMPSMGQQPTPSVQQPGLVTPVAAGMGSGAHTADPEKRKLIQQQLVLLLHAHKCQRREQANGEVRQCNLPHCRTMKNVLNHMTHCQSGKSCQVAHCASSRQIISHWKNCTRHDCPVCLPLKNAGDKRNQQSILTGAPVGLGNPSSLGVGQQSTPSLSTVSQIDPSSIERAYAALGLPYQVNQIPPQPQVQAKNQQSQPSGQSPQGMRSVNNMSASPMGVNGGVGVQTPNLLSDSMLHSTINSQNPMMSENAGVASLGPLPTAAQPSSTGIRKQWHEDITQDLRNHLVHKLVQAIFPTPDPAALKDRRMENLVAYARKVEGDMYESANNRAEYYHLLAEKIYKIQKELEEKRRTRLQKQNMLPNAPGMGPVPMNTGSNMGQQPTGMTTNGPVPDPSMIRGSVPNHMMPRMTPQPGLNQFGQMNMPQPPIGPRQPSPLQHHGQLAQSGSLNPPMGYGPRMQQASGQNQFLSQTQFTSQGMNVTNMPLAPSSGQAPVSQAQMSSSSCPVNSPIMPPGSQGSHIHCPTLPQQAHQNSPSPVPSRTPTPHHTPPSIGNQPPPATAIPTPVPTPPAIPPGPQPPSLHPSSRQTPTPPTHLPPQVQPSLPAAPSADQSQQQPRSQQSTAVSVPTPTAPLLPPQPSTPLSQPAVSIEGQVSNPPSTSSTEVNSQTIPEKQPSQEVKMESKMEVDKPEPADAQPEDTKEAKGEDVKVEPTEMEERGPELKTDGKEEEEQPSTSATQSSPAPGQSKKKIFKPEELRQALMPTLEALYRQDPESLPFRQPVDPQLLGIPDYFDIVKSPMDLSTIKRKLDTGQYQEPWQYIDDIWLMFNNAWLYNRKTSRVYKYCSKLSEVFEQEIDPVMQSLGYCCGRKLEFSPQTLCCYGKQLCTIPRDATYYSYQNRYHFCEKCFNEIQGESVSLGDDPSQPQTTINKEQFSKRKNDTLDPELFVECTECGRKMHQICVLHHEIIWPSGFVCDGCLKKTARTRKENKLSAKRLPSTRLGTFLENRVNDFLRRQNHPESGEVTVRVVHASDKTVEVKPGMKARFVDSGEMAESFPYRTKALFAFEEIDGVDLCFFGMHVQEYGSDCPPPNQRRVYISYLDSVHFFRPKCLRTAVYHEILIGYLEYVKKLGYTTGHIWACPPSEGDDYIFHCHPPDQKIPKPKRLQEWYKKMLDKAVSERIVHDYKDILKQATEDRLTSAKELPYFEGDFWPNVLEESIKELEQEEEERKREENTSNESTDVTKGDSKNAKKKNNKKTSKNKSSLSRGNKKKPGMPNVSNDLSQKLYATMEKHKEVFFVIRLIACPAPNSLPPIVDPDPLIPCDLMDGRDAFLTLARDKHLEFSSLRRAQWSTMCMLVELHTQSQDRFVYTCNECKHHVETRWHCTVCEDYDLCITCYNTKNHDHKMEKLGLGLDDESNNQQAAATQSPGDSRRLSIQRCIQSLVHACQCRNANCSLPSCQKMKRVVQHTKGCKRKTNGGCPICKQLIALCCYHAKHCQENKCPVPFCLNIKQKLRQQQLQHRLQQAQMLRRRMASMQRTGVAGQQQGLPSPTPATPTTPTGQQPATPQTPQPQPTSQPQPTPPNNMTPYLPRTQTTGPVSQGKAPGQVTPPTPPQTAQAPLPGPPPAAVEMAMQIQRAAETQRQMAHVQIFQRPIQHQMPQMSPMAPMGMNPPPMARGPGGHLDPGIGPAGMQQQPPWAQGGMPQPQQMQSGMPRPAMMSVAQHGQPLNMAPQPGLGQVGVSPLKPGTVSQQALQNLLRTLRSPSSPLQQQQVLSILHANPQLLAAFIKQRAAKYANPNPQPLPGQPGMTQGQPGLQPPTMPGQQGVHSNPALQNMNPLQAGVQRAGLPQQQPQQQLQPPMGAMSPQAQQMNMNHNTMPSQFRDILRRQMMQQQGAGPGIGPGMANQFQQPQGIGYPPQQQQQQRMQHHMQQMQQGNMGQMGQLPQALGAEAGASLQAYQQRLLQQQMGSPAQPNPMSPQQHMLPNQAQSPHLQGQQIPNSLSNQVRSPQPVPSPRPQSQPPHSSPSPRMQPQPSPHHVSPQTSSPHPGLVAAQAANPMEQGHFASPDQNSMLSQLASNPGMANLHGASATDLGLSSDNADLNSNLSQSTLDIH", "test": "Co-IP of bone marrow Sca-1posit cells from treated mice (anti-p300)", "format": "in vivo", "details": "YH250 2 mg/kg subcutaneously, 24 hrs", "method": "(§1) YH250 was used in this study. Female C57/Black mice were administrated with either DMSO (solvent control) or YH250 (2 mg/kg) subcutaneously. 24 hrs later, bone marrow Sca-1posit cells were isolated with Anti-Sca-1 microbeads (Miltenyi Biotec, Cat#130-092-529) for co-immunoprecipitation (FIG. 4A). Cells were then lysed and incubated with either anti-CBP (A22) or anti-p300 (C20) antibodies. Then, the immunoprecipitation complex were electrophoresed and detected with antibodies to either β-catenin or γ-catenin. […] This confirms that YH250 directly disrupts the p300/catenin interaction thereby enhancing the CBP/catenin interaction in HSPCs."}, "Human survivin promoter": {"test_system": "Human survivin promoter", "test": "Survivin/luciferase reporter (Survivin-Hek-293)", "format": "cell-based", "details": "Homo sapiens; Survivin-Hek-293, 24 hours; read-out: survivin/luciferase reporter: did not inhibit up to", "method": "(§2) Hek293 cells were stably transfected with plasmid that contains multiple TCF/LEF fragments in front of Luciferase gene. Wnt/β-catenin activity was determined from luciferase expression levels. […] Briefly, stably transfected Hek-293, STFI.1 (Wnt/β-catenin-driven luciferase) and Survivin-Hek-293 (1 Kb Human survivin promoter-driven luciferase) cells were maintained in DMEM, 10% FBS, Pen/Strep with 400 μg/mL G418 or 2 μg/mL puromycin, respectively. To check the activity of ICG-001, YH249, and YH250, the cells were split into white-opaque 96-well plates at 10,000 cells per well and allowed to attach overnight. For SuperTOPLASH, the inhibitors were added to the cells and pre-incubated for 1 hour prior to stimulation with 10 mM Li Cl for 24 hours. Luciferase activity was read using BrightGlo (Promnega) luciferase substrate. For survivin/luc, the inhibitors were added to the cells and incubated for 24 hours prior to readout. To calculate IC5o values, the resulting curve was fitted to a four-parameter logistic model (4PL) using GraphPad Prism 5 software.\nB. Survivin Expression Level: The Secondary Screen.\n(§3) An endogenous human survivin 1 kb promoter was inserted before a luciferase gene. […] R1 and R2 were diversified in this study. Percent inhibition of luciferase activity was calculated according to the following equations; % inhibition of STF 1.1 reporter activity=(I−RLU(10 mM LiCl) treated/RLU(10 omM LiCl) vehicle×control)100, % inhibition of Survivin reporter activity=(1−RLUtreated/RLU vehicle control)×100. Error bars indicate the mean±SE of 3 separate experiments. Selectivity (FIG. 2H) was calculated by IC50 value for Survivin-Hek-293/IC50 value for STF 1.1."}, "bone marrow HSPC [3]": {"test_system": "bone marrow HSPC", "test": "Multiple administration, competitive repopulation assay", "format": "in vivo, mouse", "method": "The golden standard to determine HSPC number and activity is a competitive repopulation assay. The testing cells and competitor cells are mixed and transplanted to recipients to create an environment the testing cells compete with competitor cells to repopulate the recipients' hematopoietic system. The quantitative engraftment level reflects the testing cell stem/progenitor cell number.\nIn this study, donor mice (CD45.2) were treated with YH250 or DMSO every 48 hs for 4 round, then, bone marrow cells from the treated mice were recovered and mixed with competitive cells from non-treated normal mice for BMT to lethally irradiated recipients (FIG. 16A). Blood were collected periodically from recipient mice to determine HSPC activities."}, "bone marrow cells": {"test_system": "bone marrow cells", "test": "Radiation induced apoptosis, cleaved PARP FACS", "format": "in vivo", "details": "administered 18 hours before 5Gy radiation; 6 hours after radiation", "method": "Since p300/-catenin antagonists such as YH250 up-regulate survivin gene expression, YH250 was tested for the ability to attenuate radiation induced cell apoptosis by detecting cleaved PARP (Poly ADP ribose polymerase-1) using anti-PARP antibody and FACS analysis (BD Bioscience, Cat#562253, anti-PARP clone F21-852). DMSO or YH250 were administrated 18 hours before 5Gy radiation. 6 hours after radiation, bone marrow cells were isolated and stained for cell surface markers (lineage markers, Sca-1, c-kit) and anti-PARP (FIG. 23A)."}, "[4]": {"biological_target": "T2, CBP/γ-catenin interaction (Mus musculus, UniProt P45481)", "T2 construct": "bone marrow Sca-1posit cells were isolated with Anti-Sca-1 microbeads; from tissue; host or cells: bone marrow Sca-1 positive cells of female C57/Black mice dosed in vivo", "T2 sequence (P45481 2-2441 limits assumed)": "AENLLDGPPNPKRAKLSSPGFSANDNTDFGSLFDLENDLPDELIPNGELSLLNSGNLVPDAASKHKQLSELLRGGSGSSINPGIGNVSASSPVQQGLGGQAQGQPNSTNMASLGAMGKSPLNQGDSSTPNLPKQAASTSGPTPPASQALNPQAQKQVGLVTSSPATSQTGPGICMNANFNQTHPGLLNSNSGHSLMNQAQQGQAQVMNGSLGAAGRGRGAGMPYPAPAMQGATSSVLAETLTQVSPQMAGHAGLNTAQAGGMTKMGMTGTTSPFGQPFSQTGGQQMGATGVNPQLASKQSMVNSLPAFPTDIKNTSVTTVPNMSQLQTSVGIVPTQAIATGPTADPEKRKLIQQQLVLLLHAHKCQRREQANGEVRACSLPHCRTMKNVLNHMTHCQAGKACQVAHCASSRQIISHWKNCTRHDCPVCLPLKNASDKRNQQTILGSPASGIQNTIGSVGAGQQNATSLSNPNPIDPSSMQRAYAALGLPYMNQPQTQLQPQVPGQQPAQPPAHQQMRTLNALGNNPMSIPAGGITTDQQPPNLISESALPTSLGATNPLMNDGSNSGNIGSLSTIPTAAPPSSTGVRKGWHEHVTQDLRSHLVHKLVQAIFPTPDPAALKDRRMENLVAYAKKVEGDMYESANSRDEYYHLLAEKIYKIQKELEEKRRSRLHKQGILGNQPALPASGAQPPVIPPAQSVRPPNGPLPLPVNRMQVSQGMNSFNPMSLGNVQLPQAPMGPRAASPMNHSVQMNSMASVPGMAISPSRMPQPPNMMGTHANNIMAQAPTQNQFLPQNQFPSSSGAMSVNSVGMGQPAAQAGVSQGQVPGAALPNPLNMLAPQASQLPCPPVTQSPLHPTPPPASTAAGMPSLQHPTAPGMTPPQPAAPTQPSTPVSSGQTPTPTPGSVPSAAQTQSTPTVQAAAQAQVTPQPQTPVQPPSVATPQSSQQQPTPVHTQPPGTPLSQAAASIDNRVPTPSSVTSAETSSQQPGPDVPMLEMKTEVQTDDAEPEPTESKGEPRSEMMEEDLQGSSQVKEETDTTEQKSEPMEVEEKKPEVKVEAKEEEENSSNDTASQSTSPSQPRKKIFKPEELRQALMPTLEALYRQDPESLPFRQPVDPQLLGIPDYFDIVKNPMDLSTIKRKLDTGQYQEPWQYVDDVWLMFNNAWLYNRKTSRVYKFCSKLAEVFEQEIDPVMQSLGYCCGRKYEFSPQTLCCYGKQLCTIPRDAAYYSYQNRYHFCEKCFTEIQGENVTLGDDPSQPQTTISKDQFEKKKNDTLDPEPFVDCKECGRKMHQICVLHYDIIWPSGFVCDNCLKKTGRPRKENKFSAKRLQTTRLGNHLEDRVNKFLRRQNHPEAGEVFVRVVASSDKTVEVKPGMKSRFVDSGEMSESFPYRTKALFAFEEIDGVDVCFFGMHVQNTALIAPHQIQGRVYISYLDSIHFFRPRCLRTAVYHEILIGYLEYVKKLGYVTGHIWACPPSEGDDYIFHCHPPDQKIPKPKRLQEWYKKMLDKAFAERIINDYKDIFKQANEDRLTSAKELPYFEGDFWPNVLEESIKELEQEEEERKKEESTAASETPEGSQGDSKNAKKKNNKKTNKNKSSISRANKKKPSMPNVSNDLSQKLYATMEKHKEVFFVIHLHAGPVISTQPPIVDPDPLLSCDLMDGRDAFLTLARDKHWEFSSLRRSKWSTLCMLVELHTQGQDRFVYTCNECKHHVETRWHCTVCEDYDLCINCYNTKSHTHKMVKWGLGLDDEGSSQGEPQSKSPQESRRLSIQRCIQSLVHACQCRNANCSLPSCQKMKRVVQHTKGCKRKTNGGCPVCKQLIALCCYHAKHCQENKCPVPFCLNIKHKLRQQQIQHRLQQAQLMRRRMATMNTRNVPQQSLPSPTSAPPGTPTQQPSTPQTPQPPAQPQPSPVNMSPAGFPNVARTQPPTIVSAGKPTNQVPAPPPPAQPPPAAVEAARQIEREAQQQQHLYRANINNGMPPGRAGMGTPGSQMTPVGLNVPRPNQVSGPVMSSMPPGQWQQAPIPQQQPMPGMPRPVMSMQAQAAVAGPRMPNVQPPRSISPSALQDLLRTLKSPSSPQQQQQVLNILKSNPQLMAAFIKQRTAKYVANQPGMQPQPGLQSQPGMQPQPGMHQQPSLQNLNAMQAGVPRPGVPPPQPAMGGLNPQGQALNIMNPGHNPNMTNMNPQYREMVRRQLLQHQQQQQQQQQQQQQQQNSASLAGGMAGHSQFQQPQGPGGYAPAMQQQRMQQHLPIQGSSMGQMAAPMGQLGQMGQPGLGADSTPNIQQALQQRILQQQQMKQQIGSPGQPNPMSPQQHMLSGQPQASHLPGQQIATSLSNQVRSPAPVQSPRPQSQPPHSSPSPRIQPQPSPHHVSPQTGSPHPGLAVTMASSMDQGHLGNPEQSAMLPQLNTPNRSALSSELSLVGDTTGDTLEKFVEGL", "test": "Co-IP of bone marrow Sca-1posit cells from treated mice (anti-CBP)", "format": "in vivo", "details": "YH250 2 mg/kg subcutaneously, 24 hrs", "method": "as §1"}, "Wnt/β-catenin pathway": {"test_system": "Wnt/β-catenin pathway", "test": "SuperTOPFLASH (STF1.1 Hek-293) Wnt/β-catenin-driven luciferase reporter", "format": "cell-based", "details": "Homo sapiens, HEK293; STF1.1 Hek-293; 1 hour pre-incubation, 10 mM LiCl 24 hours", "method": "A. Wnt/β-Catenin Activity: The Initial SuperTOPFLASH Screen.\nas §2, §3"}, "LSK150+41+48+ cells": {"test_system": "LSK150+41+48+ cells", "test": "RNA sequencing of progenitor population from treated mice", "format": "in vivo, mouse", "details": "2 mg/kg vs DMSO, 16 hours", "method": "DMSO or YH250 (2 mg/kg) were administrated to female C57/Black mice."}, "[5]": {"details": "bone marrow cells recovered day 7 post radiation"}, "[6]": {"details": "bone marrow cells recovered day 14 post radiation"}}}
{"smiles": "COc1cccc(CNC(=O)N2C3CN(Cc4cc(Cl)cc(Cl)c4N(C)C)C(=O)[C@H](Cc4ccc(O)cc4)N3C(=O)CN2C)c1OC", "note": "(stereo partly shown) [YH250]", "values": [{"measurement": "long-term engraftment", "setting": "bone marrow HSPC [1]; [5]", "value": "4.1±1.6"}, {"measurement": "short term engraftment", "setting": "bone marrow HSPC [1]; [5]", "value": "5.8±2.4"}, {"measurement": "long-term engraftment", "setting": "bone marrow HSPC [1]; [6]", "value": "3.4±0.57"}, {"measurement": "short term engraftment", "setting": "bone marrow HSPC [1]; [6]", "value": "12.3±2.0"}, {"measurement": "engraftment vs DMSO treated animals, short term and long term", "setting": "bone marrow HSPC [1]; cells recovered 7th day post 7Gy radiation, one dose 24 hours post radiation", "value": "better engraftment"}, {"measurement": "p300/γ-catenin interaction", "setting": "[2]", "value": "inhibits p300/γ-catenin interaction"}, {"measurement": "IC50", "setting": "Human survivin promoter", "value": "> 20", "unit": "µM"}, {"measurement": "BrdU positive cells in HSPC compartment", "setting": "bone marrow HSPC [3]; LSK34negt135neg, LSK34neg135neg48negt150posit, LSK34posit135negt cells", "value": "more BrdU positive cells"}, {"measurement": "engraftment level at day 140 and 164 vs day 40 after BMT", "setting": "bone marrow HSPC [3]; donors treated every 48 hs for 4 round, p<0.01, n=5/group", "value": "significantly increased"}, {"measurement": "engraftment level vs DMSO treated cells", "setting": "bone marrow HSPC [3]; no statistical significance (n=5)", "value": "higher than DMSO treated cells"}, {"measurement": "apoptosis (cleaved PARP) in LSK, lineage-negt and lineage-posit population", "setting": "bone marrow cells", "value": "significantly less apoptosis"}, {"measurement": "CBP/γ-catenin interaction", "setting": "[4]", "value": "promotes CBP/γ-catenin interaction"}, {"measurement": "IC50", "setting": "Wnt/β-catenin pathway", "value": "< 0.1", "unit": "µM"}, {"measurement": "Fold-Change Car1", "setting": "LSK150+41+48+ cells", "value": "−12.1", "unit": "fold"}, {"measurement": "Fold-Change Gm26377 (miRNA)", "setting": "LSK150+41+48+ cells", "value": "−3.19", "unit": "fold"}, {"measurement": "Fold-Change Ighm", "setting": "LSK150+41+48+ cells", "value": 2.36, "unit": "fold"}, {"measurement": "Fold-Change Ighv11-2", "setting": "LSK150+41+48+ cells", "value": 4.42, "unit": "fold"}, {"measurement": "Fold-Change Igkv19-93", "setting": "LSK150+41+48+ cells", "value": 3.12, "unit": "fold"}, {"measurement": "Fold-Change Mid1", "setting": "LSK150+41+48+ cells", "value": "−2.8", "unit": "fold"}]}
